Measurements from the NIST ThermoML archive (doi:10.1016/j.jct.2013.12.002).

Assay: osmotic coefficient (dimensionless); mn = molality of the nth substance listed, in mol/kg
Conditions: 323.15 K, 101 kPa, Liquid, Knauer K-7000 vapour pressure osmometer

CCCC[N+]1(C)CCCC1.N#CN=C=[N-] [1-butyl-1-methylpyrrolidinium dicyanamide] + CCC(C)O
Conditions | osmotic coefficient
m1 = 0.0878 | 0.793
m1 = 0.1149 | 0.755
m1 = 0.1863 | 0.705
m1 = 0.2981 | 0.641
m1 = 0.4092 | 0.621
m1 = 0.5397 | 0.591
m1 = 0.8291 | 0.58
m1 = 1.213 | 0.555
m1 = 1.611 | 0.556
m1 = 2.019 | 0.548
m1 = 2.4 | 0.539
m1 = 2.776 | 0.533
m1 = 3.307 | 0.523

CCCC[N+]1(C)CCCC1.N#CN=C=[N-] [1-butyl-1-methylpyrrolidinium dicyanamide] + CCCCCO
Conditions | osmotic coefficient
m1 = 0.0446 | 0.63
m1 = 0.0818 | 0.59
m1 = 0.1078 | 0.558
m1 = 0.1865 | 0.512
m1 = 0.299 | 0.491
m1 = 0.3928 | 0.477
m1 = 0.5108 | 0.467
m1 = 0.8086 | 0.453
m1 = 1.191 | 0.444
m1 = 1.598 | 0.435
m1 = 2.004 | 0.425
m1 = 2.406 | 0.417
m1 = 2.798 | 0.409
m1 = 3.063 | 0.404

CCCC[N+]1(C)CCCC1.N#CN=C=[N-] [1-butyl-1-methylpyrrolidinium dicyanamide] + CCCO
Conditions | osmotic coefficient
m1 = 0.0836 | 0.9
m1 = 0.119 | 0.858
m1 = 0.2054 | 0.8
m1 = 0.2962 | 0.743
m1 = 0.4029 | 0.71
m1 = 0.502 | 0.689
m1 = 0.7791 | 0.653
m1 = 1.182 | 0.614
m1 = 1.61 | 0.587
m1 = 2 | 0.576
m1 = 2.442 | 0.565
m1 = 2.865 | 0.56

CCCC[N+]1(C)CCCC1.N#CN=C=[N-] [1-butyl-1-methylpyrrolidinium dicyanamide] + CCCCO
Conditions | osmotic coefficient
m1 = 0.0577 | 0.734
m1 = 0.0761 | 0.68
m1 = 0.1089 | 0.665
m1 = 0.2006 | 0.624
m1 = 0.296 | 0.602
m1 = 0.4011 | 0.587
m1 = 0.4745 | 0.581
m1 = 0.8117 | 0.57
m1 = 1.214 | 0.551
m1 = 1.617 | 0.541
m1 = 2.033 | 0.532
m1 = 2.43 | 0.52
m1 = 2.845 | 0.516
m1 = 3.308 | 0.508

CCCC[N+]1(C)CCCC1.N#CN=C=[N-] [1-butyl-1-methylpyrrolidinium dicyanamide] + CC(C)O
Conditions | osmotic coefficient
m1 = 0.0709 | 0.942
m1 = 0.1087 | 0.878
m1 = 0.1972 | 0.827
m1 = 0.2934 | 0.778
m1 = 0.3976 | 0.75
m1 = 0.4909 | 0.722
m1 = 0.7769 | 0.685
m1 = 1.175 | 0.645
m1 = 1.595 | 0.631
m1 = 1.998 | 0.612
m1 = 2.419 | 0.608
m1 = 2.821 | 0.595
m1 = 3.296 | 0.59
